Results from ChEMBL document CHEMBL1141708, “Structure-activity relationship of ortho- and meta-phenol based LFA-1 ICAM inhibitors” (Bioorg Med Chem Lett, 2008).

How the values were obtained:
[1] = in vivo; conditions: rat, po
[2] = in vivo; conditions: rat

bioavailability [1] [%] | half-life [2] [h] | SMILES
9 | 3.6 | O=C(/C=C/c1ccc(Sc2ccccc2OC[C@H]2CC[C@@H](C(=O)O)CC2)c(C(F)(F)F)c1C(F)(F)F)N1CCOCC1
31 | 2.6 | O=C(/C=C/c1ccc(Sc2cccc(O[C@H]3CC[C@@H](C(=O)O)CC3)c2)c(C(F)(F)F)c1C(F)(F)F)N1CCOCC1
